Data on two compounds can be found in patent US20080009025A1, “PROTEIN KINASE REGULATION” (priority 1999, published 2008).

In test [1] the target is T1, PDK1 (Homo sapiens, UniProt O15530).
T1 sequence (O15530 1-556): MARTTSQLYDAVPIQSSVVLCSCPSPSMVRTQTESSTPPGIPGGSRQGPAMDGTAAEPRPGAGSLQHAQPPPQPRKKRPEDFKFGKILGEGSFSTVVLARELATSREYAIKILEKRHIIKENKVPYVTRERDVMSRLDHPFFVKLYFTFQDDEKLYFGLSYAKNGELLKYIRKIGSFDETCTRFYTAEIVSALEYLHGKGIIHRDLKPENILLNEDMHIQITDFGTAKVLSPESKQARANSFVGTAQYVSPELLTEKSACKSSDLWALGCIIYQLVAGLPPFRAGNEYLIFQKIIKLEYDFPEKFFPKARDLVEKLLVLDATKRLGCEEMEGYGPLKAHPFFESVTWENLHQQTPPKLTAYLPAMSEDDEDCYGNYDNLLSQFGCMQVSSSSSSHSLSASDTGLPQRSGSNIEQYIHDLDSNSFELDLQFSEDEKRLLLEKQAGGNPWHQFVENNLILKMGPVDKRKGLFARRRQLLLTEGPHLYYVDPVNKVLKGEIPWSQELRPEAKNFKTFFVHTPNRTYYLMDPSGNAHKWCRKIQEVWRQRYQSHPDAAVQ
Also noted: Full length PDK1 (residues 1-556); made in house; host or cells: 293 cells. The following applies: ref [17]; cited from earlier work.

Test [2] has as its system p70 S6K. In words: IGF1-induced activation and Thr412 phosphorylation of HA-p70 S6K in co-transfected 293 cells. The class given is cell-based, human. The protocol: FIG. 3. PIF inhibits p70 S6K activation and phosphorylation at Thr252 and Thr412. 293 cells were co-transfected with constructs expressing the wild type (wt) full length HA-p70 S6K (A) or the full length HA-T412E p70 S6K (B) with either GST-PIF, GST-F977A-PIF, or GST. 24 h post transfection the cells were serum starved for 16 h and them stimulated for 40 min with 100 nM IGF 1. The cells were lysed and HA-p70 S6K was immunoprecipitated and assayed as described in methods. Protein from each lysate (10 μg for the HA blots or 20 μg for the T412-P blot) was electrophoresed on a 10% SDS/polyacrylamide gel and immunoblotted using HA-antibody or the T412-P antibody. The T412-P antibody was incubated with either the synthetic peptide (10 μg/ml) corresponding to residues 401 to 418 of p70 S6K phosphorylated at Thr412 (phosph-412E peptide), or the unphosphorylated peptide (de-phospho-Thr412 peptide). The T412-P antibody consistently recognises a protein termed “non specific band” in cell lysates which migrate at (75 kDa) derived from non transfected and transfected cells. […] It is not co-immunoprecipitated with HA-p70 S6K (date not shown). The HA-p70 S6K activities shown are the average ±SEM for a single experiment carried out in triplicate. Similar results were obtained in 8 separate experiments (A) and 2 experiments (B). The immunoblotting was carried out in 3 separate experiments with similar results.
Transient Transfection Experiments. The DNA constructs encoding for the wild type and mutant forms of HA-p70 S6K in the pMT2 vector used in this study have been described previously. […] The constructs used to express GST-PIF and the mutant GST-F977A-PIF [22] are in the pEBG2T vector. The empty pEBG2T vector was used to express GST protein in control experiments. DNA constructs used in this study were purified from bacteria using the Qiagen plasmid Mega kit according to the manufacturer's protocol.
293 cells cultured on 10 cm diameter dishes in Dulbecco's Modified Eagle's Medium containing 10% (by vol) foetal bovine serum, were transfected with 2 μg of DNA construct encoding either wild type or mutant HA-p70 S6K or HA-PKBα, and 10 μg of DNA construct encoding either GST-PIF, GST-F977A-PIF, GST, Myc-PDK1, kinase-dead Myc-PDK1, or the empty pCMV5 vector using a modified calcium phosphate method. 24 h post transfection the cells were deprived of serum for 16 h, and exposed to IGF1 (100 nM) for the time indicated. The cells were lysed in 1 ml of lysis buffer (50 mM Tris/HCl pH 7.5, 1 mM EDTA, 1 mM EGTA, 1% (by vol) Triton X-100, 1 mM sodium orthovanadate, 10 mM sodium β-glycerophosphate, 50 mM NaF, 5 mM sodium pyrophosphate, 1 μM microcystin-LR, 0.27 M sucrose and protease cocktail tablets), cleared by centrifugation, and 50 μg of protein was subjected to immunoprecipitation with anti HA monoclonal antibody. The protein concentrations of the lysates were determined by the Bradford method.
Kinase assays. The HA-p70 S6K or HA-PKBα immunoprecipitates were washed and assayed for kinase activity using the peptide Crosstide (GRPRTSSFAEG) as described previously for PKBα [28]. One unit of activity, U, was that amount which catalysed the phosphorylation of 1 nmol of substrate in one minute.
Immunoblotting for dephosphorylated and Thr412-phosphorylated p70 S6 kinase. Cell lysates were made 1% SDS and the indicated amounts of protein were subjected to SDS/Polyacrylamide gel electrophoresis, subsequently transferred to nitrocellulose and immunoblotted using the indicated monoclonal antibody or the T412-P phospho-specific antibody (0.4 μg/ml) in 50 mM Tris/HCl pH7.5, 0.15M NaCl, 0.5% (by vol) Tween and 10% (by mass) skimmed milk. Detection was performed using the enhanced chemiluminescence reagent (Amersham Pharmacia Biotech).

In test [3] the test system is PKBα. In words: IGF1-induced activation and Ser473 phosphorylation of HA-PKBα in co-transfected 293 cells. In kind it is cell-based, human. The protocol:
FIG. 4. […] 293 cells were co-transfected with constructs expressing the wild type full length HA-PKBα with either GST-PIF or GST. 24 h post transfection the cells were serum starved for 16 h and then stimulated for 15 min with 100 nM IGF1. The cells were lysed and HA-PKBα was immunoprecipitated and assayed as described in Methods. Protein from each lysate (10 μg) was electrophoresed on a 10% SDS/polyarylamide gel and immunoblotted using HA-antibody or the S473-P antibody. The HA-PKBα activities shown are the averages ±SEM for a single experiment carried out in triplicate, similar results were obtained in 3 separate experiments.
293 cells cultured on 10 cm diameter dishes in Dulbecco's Modified Eagle's Medium containing 10% (by vol) foetal bovine serum, were transfected with 2 μg of DNA construct encoding either wild type or mutant HA-p70 S6K or HA-PKBα, and 10 μg of DNA construct encoding either GST-PIF, GST-F977A-PIF, GST, Myc-PDK1, kinase-dead Myc-PDK1, or the empty pCMV5 vector using a modified calcium phosphate method. 24 h post transfection the cells were deprived of serum for 16 h, and exposed to IGF1 (100 nM) for the time indicated. […] The protein concentrations of the lysates were determined by the Bradford method. […]

Where a SMILES comes first, the peptide text is derived from it.

Take `CC[C@H](C)[C@H](NC(=O)[C@H](Cc1ccc(O)cc1)NC(=O)[C@H](CC(=O)O)NC(=O)[C@H](Cc1ccccc1)NC(=O)[C@H](CC(=O)O)NC(=O)[C@H](CCCNC(=N)N)NC(=O)[C@H](Cc1ccccc1)NC(=O)[C@H](CCSC)NC(=O)[C@H](CCC(=O)O)NC(=O)[C@H](CCC(N)=O)NC(=O)[C@H](CCC(=O)O)NC(=O)[C@H](CCC(=O)O)NC(=O)[C@H](CCC(=O)O)NC(=O)[C@H](CO)NC(=O)[C@H](CC(C)C)NC(=O)[C@@H](NC(=O)[C@H](CCCNC(=N)N)NC(=O)[C@@H]1CCCN1C(=O)[C@H](CCC(=O)O)NC(=O)[C@@H](N)CCCNC(=N)N)[C@@H](C)CC)C(=O)N[C@@H](C)C(=O)N[C@@H](CC(=O)O)C(=O)N[C@@H](Cc1c[nH]c2ccccc12)C(=O)N[C@@H](CS)C(=O)O` [PIFtide] (H-REPRILSEEEQEMFRDFDYIADWC-OH; N-terminus and C-terminus assumed): the “increase in the rate at which PDK1 phosphorylated T308tide” value in test [1] is given as 4 fold.
As to “GST-PIF: glutathione S-transferase fused to the last 77 residues of PRK2 (PIF)”, in test [2] (293 cells co-expressing HA-p70 S6K, unstimulated), the “basal HA-p70 S6K activity” value was “virtually undetectable”. In addition, the “HA-p70 S6K activity after IGF1 stimulation” value in test [2] (293 cells, 100 nM IGF1 40 min) is recorded as “only a very slight increase”. Further, the “IGF1-induced phosphorylation of HA-p70 S6K at Thr412” value in test [2] (293 cells, T412-P antibody) is given as “failed to induce”. Moreover, in test [2] (293 cells, data not shown), the “IGF1 induced activation and phosphorylation at Thr412 of the p70 S6K-T2 mutant” value is “abolished”. Further, the “IGF1-induced phosphorylation of HA-PKBα at Ser473” value in test [3] was “did not inhibit or potentiate”.
